# Measured values from EP0179667B1, “N6-substituted adenosines” (priority 1984, dated 1986).
# Tests used:
# adenosine A1 receptor = molecular target: T1, adenosine A1 receptor (Rattus norvegicus, UniProt P25099); experiment: Adenosine Receptor Binding - A1 Receptor Affinity (RBA1); conditions: [3H]-CHA, rat whole brain membranes; read-out: RBA-1
# T1 construct: Whole brain minus cerebellum and brainstem from male Long Evans rats (150-200 g) was homogenized; from tissue; host or cells: rat whole brain minus cerebellum and brainstem, membrane homogenate
# T1 sequence (P25099 1-326): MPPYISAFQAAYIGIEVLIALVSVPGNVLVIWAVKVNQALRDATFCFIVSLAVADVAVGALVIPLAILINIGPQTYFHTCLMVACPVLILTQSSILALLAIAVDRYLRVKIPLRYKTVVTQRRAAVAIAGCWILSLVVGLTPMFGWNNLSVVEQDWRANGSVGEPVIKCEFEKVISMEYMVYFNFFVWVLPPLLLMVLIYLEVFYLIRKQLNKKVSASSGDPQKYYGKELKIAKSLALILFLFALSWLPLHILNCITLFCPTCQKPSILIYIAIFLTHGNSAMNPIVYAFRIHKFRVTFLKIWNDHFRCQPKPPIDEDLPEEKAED
# Experimental: Adenosine Receptor Binding - A1 Receptor Affinity (RBA1)
# Whole brain minus cerebellum and brainstem from male Long Evans rats (150-200 g) was homogenized in 30 volumes of ice-cold 0.05 M Tris-HCI buffer pH 7.7 using a Brinkman Polytron PT-10 (setting number 6 for 20 seconds) and centrifuged for ten minutes at 20,000 x g (Sorvall RC-2), 4°C. The supernatant was discarded, and the pellet was resuspended and centrifuged as before. The pellet was resuspended in 20 ml Tris-HCI buffer containing two International Units/ml of adenosine deaminase (Sigma type III from calf intestinal mucosa), incubated at 37°C for 30 minutes, then subsequently at 0°C for ten minutes. The homogenate was again centrifuged, and the final pellet was resuspended in ice-cold 0.05 M Tris-HCI buffer pH 7.7 to a concentration of 20 mg/ml original wet tissue weight and used immediately.
# Tissue homogenate (10 mg/ml) was incubated in 0.05 M Tris-HCI buffer pH 7.7 containing 1.0 nM [^3H]-N^6-cyclohexyladenosine (^3H]-CHA) with or without test agents in triplicate for one hour at 25°C. Incubation volume was 2 ml. Unbound [^3H]-CHA was separated by rapid filtration under reduced pressure through Whatman glass fiber (GF/B) filters. The filters were rinsed three times with 5 ml of ice cold 0.05 M Tris-HCI buffer pH 7.7. The radio-labeled ligand retained on the filter was measured by liquid scintillation spectrophotometry after shaking the filters for one hour or longer on a mechanical shaker in 10 ml of Beckman Ready Solv HP scintillation cocktail.
# Nonspecific binding was defined as the binding which occurred in the presence of 1 mM thophylline. […] The Scatchard plot was calculated by linear regression of the line obtained by plotting the amount of radioligand bound (pmoles/gram of tissue) versus [formula] Since the amount of radioligand bound was a small fraction of the total amount added, free radioligand was defined as the concentration (nM) of radioligand added to the incubation mixture. The Hill coefficient was calculated by linear regression of the line obtained by plotting the log of the bound radioligand vs the log of the [formula] The maximal number of binding sites (Bmax) was calculated from the Scatchard plot.
# adenosine A2 receptor = molecular target: T2, adenosine A2 receptor (Rattus norvegicus, UniProt P30543); experiment: Adenosine Receptor Binding - A2 Receptor Affinity (RBA2); conditions: [3H]NECA, rat striatal membranes; read-out: RBA-2
# T2 construct: 5 mg original tissue weight of rat weight of rat striatal membranes; tissue Pel-Freez (Rogers, Arkansas); host or cells: rat striatum, membrane preparation
# T2 sequence (P30543 whole entry): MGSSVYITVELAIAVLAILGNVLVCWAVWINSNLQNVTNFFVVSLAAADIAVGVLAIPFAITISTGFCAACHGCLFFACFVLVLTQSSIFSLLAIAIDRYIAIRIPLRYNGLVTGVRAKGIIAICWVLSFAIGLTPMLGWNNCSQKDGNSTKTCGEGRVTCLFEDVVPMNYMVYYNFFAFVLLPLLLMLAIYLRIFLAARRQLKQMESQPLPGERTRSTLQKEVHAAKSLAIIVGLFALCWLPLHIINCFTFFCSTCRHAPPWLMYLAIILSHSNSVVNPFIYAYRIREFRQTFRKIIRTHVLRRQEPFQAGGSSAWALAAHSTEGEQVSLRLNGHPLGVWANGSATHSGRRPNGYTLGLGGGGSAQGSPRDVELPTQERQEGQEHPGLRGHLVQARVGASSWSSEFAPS
# Experimental: Adenosine Receptor Binding - A2 Receptor Affinity (RBA2)
# Brains from 200-500 g mixed sex Sprague-Dawley rats were purchased from Pel-Freez (Rogers, Arkansas). […] Brains were thawed and then kept on ice while the striata were dissected out. […] When needed, tissue was thawed at room temperature, disrupted in a Polytron, and kept on ice until used.
# All incubations were for 60 minutes at 25°C in 12x75 mm glass tubes containing 1 ml Tris with 5 mg original tissue weight of rat weight of rat striatal membranes, 4 nM [^3H]-N-ethyl adenosine-5'-carboxamide ([^3H]NECA), 50 nM N^6-cyclopentyladenosine (to eliminate A1 receptor binding), 10 mM MgCl2, 0.1 units/ml of adenosine deaminase and 1% dimethylsulfoxide. N^6-Cyclopentyladenosine was dissolved at 10 mM in 0.02 N HCI and diluted in Tris. […] Test compounds were dissolved at 10 mM in dimethylsulfoxide on the same day as the experiment, and diluted in dimethylsulfoxide to 100x the final incubation concentration. […] [^3H]NECA was diluted to 40 nM in Tris. The membrane suspension (5 mg/0.79 ml) contained sufficient MgC12 and adenosine deaminase to give 10 mM and 0.1 units/ml, respectively, final concentration in the incubation. For test compounds with lC50 values less than 1 µM, the order of additions was test compound (10 µl), N^6-cyclopentyladenosine (100 µl), [^3H]NECA (100 µl), and membranes (0.79 ml). […] After all additions, the rack of tubes was vortexed, and the tubes were then incubated for 60 min at 25°C in a shaking water bath. The rack of tubes was vortexed an additional time halfway through the incubation.
# incubations were terminated by filtration through 2.4 cm GF/B filters under reduced pressure. Each tube was filtered as follows: the contents of the tube were poured onto the filter, 4 ml of ice-cold Tris were added to the tube and the contents poured onto the filter, and the filter was washed twice with 4 ml of ice-cold Tris. The filtration was complete in about twelve seconds.
# Nonspecific binding was defined as binding in the presence of 100 µM N^6-cyclopentyladenosine, and specific binding was defined as total binding minus nonspecific binding. The IC50 was calculated by weighed nonlinear least squares curve-fitting to the mass-action equation. [formula] • where Y is cpm bound • T is cpm total binding without drug • S is cpm specific binding without drug • D is the concentration of drug • and K is the IC50 of the drug Weighting factors were calculated under the assumption that the standard deviation was proportional to the predicted value of Y. Nonspecific binding was treated as a very large (infinite) concentration of drug in the computer analysis.
# Swiss-Webster male mice [1] = experiment: Mouse Activity and Screen Test Procedure (MAST): locomotor activity in actophotometer; format: in vivo; conditions: one hour prior to testing
# Experimental: Nine unfasted Swiss-Webster male mice weighing 20-30 g equally divided into three groups for each drug dose to be tested. That is, data for each dose level was generated by three separated groups of three mice each. A minimum of three dose levels (10, 30, and 100 mg/kg) are tested for each drug. Treatments are administered intraperitoneally one hour prior to testing. All dosages are calculated as parent compound and given in volumes of 10 ml/kg. […] Control animals are injected with Methocel. […] The actophotometer consists of a cylindrical chamber whose center is occupied by another cylinder which contains the illumination for six photocells located on the perimeter of the chamber. Six light-beam interruptions equal one count. […] Data: The data obtained from the screen test are expressed as percent of mice falling off the screen. Data derived from locomotor activity of drug treated mice are compared to the activity of vehicle treated animals and are expressed as percent inhibition of spontaneous locomotion. All percentages reported for inhibition of locomotion (LI) are based upon data accumulated for one hour. […] An overall dose rating is obtained by the following criteria: LAD refers to the lowest dose at which an A rating is achieved. […] The compounds are identified in the Examples.
# Swiss-Webster male mice [2] = experiment: Mouse Activity and Screen Test Procedure (MAST): screen test (ST); format: in vivo; conditions: one hour postinjection
# Text: The compounds of the invention are new chemical substances which are useful as pharmaceutical agents for the treatment of psychoses. The antipsychotic activity of representative compounds of the invention was established by the Mouse Activity and Screen Test Procedrue (MAST) described below.
# Nine unfasted Swiss-Webster male mice weighing 20-30 g equally divided into three groups for each drug dose to be tested. That is, data for each dose level was generated by three separated groups of three mice each.
# A minimum of three dose levels (10, 30, and 100 mg/kg) are tested for each drug. Treatments are administered intraperitoneally one hour prior to testing. All dosages are calculated as parent compound and given in volumes of 10 ml/kg. Compounds are dissolved or suspended in 0.2% Methocel. Control animals are injected with Methocel.
# Testing: A two part testing procedure is started one hour postinjection. First, the screen test (ST) is performed (see Pharmac. Biochem. Behav. 6, 351-353, 1977). Briefly this test consists of placing mice on individual wire screens which are then rotated 180 degrees at the start of a 60 second observation period. The number of mice falling off the inverted screen is recorded.
# Data: The data obtained from the screen test are expressed as percent of mice falling off the screen. Data derived from locomotor activity of drug treated mice are compared to the activity of vehicle treated animals and are expressed as percent inhibition of spontaneous locomotion. All percentages reported for inhibition of locomotion (LI) are based upon data accumulated for one hour. Both phases of testing are graded: A=60-100%; G=31-59%; and N=0-30%. An overall dose rating is obtained by the following criteria:
# LAD refers to the lowest dose at which an A rating is achieved. […] Utilizing this procedure, an overall dose rating of A was obtained for the noted compound at the indicated dose. The compounds are identified in the Examples.
SMILES,IC50 (adenosine A1 receptor) [µM],IC50 (adenosine A2 receptor) [µM],Screen test failure (Swiss-Webster male mice [2]; 3 mg/kg intraperitoneally) [%],Screen test failure (Swiss-Webster male mice [2]; 10 mg/kg intraperitoneally) [%],Screen test failure (Swiss-Webster male mice [2]; 30 mg/kg intraperitoneally) [%],Screen test failure (Swiss-Webster male mice [2]; 1 mg/kg intraperitoneally) [%],Inhibition of mouse locomotor activity (Swiss-Webster male mice [1]; 3 mg/kg intraperitoneally) [%],Inhibition of mouse locomotor activity (Swiss-Webster male mice [1]; 10 mg/kg intraperitoneally) [%],Inhibition of mouse locomotor activity (Swiss-Webster male mice [1]; 30 mg/kg intraperitoneally) [%],Inhibition of mouse locomotor activity (Swiss-Webster male mice [1]; 1 mg/kg intraperitoneally) [%]
"CCOC(=O)OC[C@H]1O[C@@H](n2cnc3c(NC4CCCc5ccccc54)ncnc32)[C@H](OC(=O)OCC)[C@@H]1OC(=O)OCC (stereo partly drawn) [Example 19, N^6-1-tetralinyl-2',3',5'-triethylcarbonate-adenosine]",–,–,0,0,11,11,57,91,95,42
"O[C@@H]1[C@H](O)[C@@H](COCc2ccccc2)O[C@H]1n1cnc2c(NC3CCCc4ccccc43)ncnc21 (stereo partly drawn) [Example 20, N^6-tetralinyl-5'-benzylether-adenosine]",5.84,46.7,–,–,–,–,–,–,–,–

# Further lines, with some results ahead:
IC50 (adenosine A1 receptor) [µM],IC50 (adenosine A2 receptor) [µM],Screen test failure (Swiss-Webster male mice [2]; 3 mg/kg intraperitoneally) [%],Screen test failure (Swiss-Webster male mice [2]; 10 mg/kg intraperitoneally) [%],Screen test failure (Swiss-Webster male mice [2]; 30 mg/kg intraperitoneally) [%],Screen test failure (Swiss-Webster male mice [2]; 1 mg/kg intraperitoneally) [%],SMILES,Inhibition of mouse locomotor activity (Swiss-Webster male mice [1]; 3 mg/kg intraperitoneally) [%],Inhibition of mouse locomotor activity (Swiss-Webster male mice [1]; 10 mg/kg intraperitoneally) [%],Inhibition of mouse locomotor activity (Swiss-Webster male mice [1]; 30 mg/kg intraperitoneally) [%],Inhibition of mouse locomotor activity (Swiss-Webster male mice [1]; 1 mg/kg intraperitoneally) [%]
0.444,2.61,–,–,–,–,"COc1cccc2c1CCC[C@H]2Nc1ncnc2c1ncn2[C@@H]1O[C@H](CO)[C@@H](O)[C@H]1O [Example 11, (R)-N^6-[5-methoxy-1-aminotetralin]-adenosine]",–,–,–,–
22.4,–,0,0,0,–,"CC1(C)O[C@@H]2[C@H](O1)[C@@H](CO)O[C@H]2n1cnc2c(NC3CCCc4ccccc43)ncnc21 (stereo partly drawn) [Example 12, N^6-(1-tetralinyl)-2',3'-O-isopropylidene-adenosine]",3,−1,−16,–
1.06,7.92,–,–,–,–,"O=C(OC[C@H]1O[C@@H](n2cnc3c(NC4CCCc5ccccc54)ncnc32)[C@H](O)[C@@H]1O)c1ccccc1 (stereo partly drawn) [Example 13, N^6-(1-tetralinyl)-5'-benzoyladenosine]",–,–,–,–
